# Results reported in patent US7416741B2, “Copper lowering treatment of inflammatory and fibrotic diseases” (The Regents of the University of Michigan, priority 2002, dated 2008).
# Read-outs that look alike come from different tables or passages of the source.
# What was measured:
# [1] = system: Con A mouse model; assay: Liver histological examination in the Con A mouse model; assay type: in vivo; conditions: Ex 4; Con A mice
# Method: A study was carried out in a mouse model of concanavilin A (Con A) production of liver cirrhosis. There were four experimental groups of several mice each. […] The Con A was injected intravenously once weekly into mice (0.3 mg/mouse/week), and produced a hepatitis, which is manifested by an increasing level of alanine transaminase (ALT) enzymes in the blood. The TM was given once daily by […] in a dose of 0.7 mg/mouse/day beginning 7 days prior to ConA treatment. During days 9 to 11 after Con A, the TM-treated mice received 1.2 mg of TM daily, to ensure adequate lowering of copper levels, and then received 0.7 mg daily for the duration of the study. A blood sample was obtained 28 days after ConA treatment, and the mice were sacrificed on the same day. Serum alanine transaminase (ALT) was measured in Sigma-Frankel (SF) units, where one unit is the formation of 0.000482 umoles of glutamate/minute at pH 7.5 and 25 ° C.
# [2] = system: α-smooth muscle actin; assay: α-Smooth muscle actin assay (ELISA) in lung homogenates; assay type: in vivo, mouse; conditions: Ex 2 Exp 2; day 21; p=0.09
# Method: α-Smooth muscle actin assay. De novo appearance of myofibroblasts is a hallmark of active fibrosis, and these cells are known as the primary source of interstitial collagen in pulmonary fibrosis (See e.g., K Zhang et al., Am. J. Pathol, 145:114-125 [1994]). Since α-smooth muscle actin is a marker of myofibroblast differentiation, the level of this protein in lung tissue homogenates was measured by ELISA as before (use same reference above for TGFβ assay by ELISA).
# [3] = system: bleomycin mouse model of pulmonary fibrosis; assay: Lung hydroxyproline assay in the bleomycin mouse model of pulmonary fibrosis; assay type: in vivo; conditions: for Hydroxyproline: sacrifice day 21
# Excerpt: In the bleomycin mouse model, which is known to be dependent upon the TGFβ pathway, the intratracheal administration of bleomycin leads to the development of severe lung inflammation followed by fibrosis in 2-3 weeks, at which time the mice are sacrificed. Fibrosis is quantified in lung tissue by measuring hydroxyproline, a key component of the collagen that is deposited in fibrotic lung.
# Mice. Female CBA/J mice at 8-10 weeks of age were from the Jackson Laboratories (Bar Harbor, Me.). These mice weighed an average of 21.4 g at the start of experiments, with a standard deviation of 1.7 g.
# Bleomycin treatment. This was undertaken on day 0 by endotracheal instillation through the oral cavity after exposure of the airway by pulling the tongue. Each mouse received 0.001 units of bleomycin (Bristol-Myers, Evansville, Ind.)/gm body weight in 30 μl of sterile saline, while control mice received an equal volume of sterile saline only.
# TM treatment experiments. TM was given in 0.25 ml of water by intragastric gavage once daily, in the doses and times indicated in the various studies as described below.
# Hydroxyproline assay. The extent of fibrosis was assessed by assaying hydroxyproline content of whole lung homogenates at the time of sacrifice as previously described (M Gharaee-Kermani et al., J. Leukoc. Biol., 64:657-666 [1998]). Results are expressed as μg hydroxyproline/lung (the lung tissue included both lungs).
# Hydroxyproline assay. The extent of fibrosis was assessed by assaying hydroxyproline content of whole-lung homogenates at the time of sacrifice as described in Gharaee-Kermani, et al., J. Leukoc. Biol., 64:657-666 (1998). Hydroxyproline was expressed as micrograms of hydroxyproline per mouse lung (the lung tissue included both lungs).
# [4] = system: rats; conditions: cited from earlier work
# [5] = system: LEC rat model; conditions: LEC rats, late stages of liver disease; cited from earlier work
# [6] = system: TGFβ; assay: TGFβ ELISA in brain homogenates of Tg2576 mice; assay type: in vivo, mouse; conditions: Ex 8; TM-treated Tg2576 mice
# Method: Brain homogenates of left hemi-brains are used for detection of human Aβ40 and Aβ42 by ELISA, as previously described (J Gau J et al., Amer. J. Pathology, 160 2:731-738 […]). Homogenates are centrifuged at 7840×g for 5 minutes at 4 ° C. to remove insoluble material. A sandwich ELISA is performed on the supernatants using BAN50 as the capture antibody and either horseradish peroxidase-coupled BA-27 or BC-05 as the detection antibody for Aβ40 or Aβ42, respectively. BAN-50 is a monoclonal antibody specific for Aβ1-10. All samples are measured in triplicate. Standard curves for the ELISA are constructed using pure human Aβ40 and Aβ42 (Bachem). In addition to measurements of Aβ, a commercially available ELISA is used to detect TGFβ levels in brain homogenates of the two groups.
# [7] = system: rodent cancer models; conditions: five different rodent cancer models; cited from earlier work
# [8] = system: bleomycin mouse model of pulmonary fibrosis; assay: Microscopic evaluation of the lungs (H&E, Masson-trichrome); assay type: in vivo
# Excerpt: Microscopic evaluation of the lungs. For morphological evaluation of fibrosis, lungs were inflated with formalin at the time of sacrifice, and after overnight fixation were embedded in paraffin and sections prepared for H&E staining as well as for Masson-trichrome staining for evaluation of collagen deposition as previously described (M Gharaee-Kermani et al., J. Leukoc. Biol., 64:657-666 [1998]).
# [9] = system: Lysyl oxidase; assay: Lysyl oxidase in the lungs, bleomycin model; assay type: in vivo, mouse; conditions: Ex 2 Exp 1; TM treated vs non-TM treated animals
# [10] = system: Cp; assay: Serum Cp in the Con A mouse model; assay type: in vivo; conditions: Ex 5 Exp 1; after fourth Con A injection
# Excerpt: Twenty-four hours after each of the first three injections, one mouse from each group was bled, and serum ALT measured. In this experiment, TM was started in the TM treated mice before the first Con A injection. After the fourth injection of Con A, all the mice were bled for ALT and Cp measurements and the experiment terminated. The Cp levels in TM treated mice were 25-50% of non-TM treated animals.
compound,measurement,setting,value
"[SH-].[SH-].[S]=[Mo]=[S] [TM, tetrathiomolybdate]",histological examination: inflammation and early bridging fibrosis,[1],not in the TM treated animals
same,"lung SMA (α-smooth muscle actin) protein levels, bleomycin-induced increase",[2],inhibited most of the increase
same,Hydroxyproline,"[3]; Ex 1 Exp 1, Bleomycin/TM group",162 ± 12 μg/lung
same,fibrosis as measured by hydroxyproline assay,"[3]; Ex 1 Exp 1, TM before bleomycin",almost completely abrogated fibrosis
same,Hydroxyproline,"[3]; Ex 1 Exp 1, TM only group",193 ± 5 μg/lung
same,Hydroxyproline (Mean ± SE),"[3]; Ex 1 Exp 2, Bleomycin Group, 0.3 mg TM/mouse/day, day 21",232 ± 4 μg hydroxyproline/lung
same,Hydroxyproline (Mean ± SE),"[3]; Ex 1 Exp 2, Bleomycin Group, 0.5 mg TM/mouse/day, day 21",197 ± 15 μg hydroxyproline/lung
same,Hydroxyproline (Mean ± SE),"[3]; Ex 1 Exp 2, Bleomycin Group, 0.7 mg TM/mouse/day, day 21",172 ± 22 μg hydroxyproline/lung
same,Hydroxyproline (Mean ± SE),"[3]; Ex 1 Exp 2, Bleomycin Group, 0.9 mg TM/mouse/day, day 21",157 ± 14 μg hydroxyproline/lung
same,Hydroxyproline (Mean ± SE),"[3]; Ex 1 Exp 2, Control Group (Saline only), 0.3 mg TM/mouse/day",132 ± 3 μg hydroxyproline/lung
same,Hydroxyproline (Mean ± SE),"[3]; Ex 1 Exp 2, Control Group (Saline only), 0.5 mg TM/mouse/day",130 ± 5 μg hydroxyproline/lung
same,Hydroxyproline (Mean ± SE),"[3]; Ex 1 Exp 2, Control Group (Saline only), 0.7 mg TM/mouse/day",152 ± 10 μg hydroxyproline/lung
same,Hydroxyproline (Mean ± SE),"[3]; Ex 1 Exp 2, Control Group (Saline only), 0.9 mg TM/mouse/day",130 ± 8 μg hydroxyproline/lung
same,protection against bleomycin-induced fibrosis as measured by hydroxyproline accumulation,"[3]; Ex 1 Exp 2, TM 0.3 to 0.9 mg",dose dependent
same,effect of TM treatment alone on hydroxyproline levels,"[3]; Ex 1 Exp 2, no bleomycin",no effect of TM treatment alone on hydroxyproline levels
same,hydroxyproline production,"[3]; Ex 1 Exp 3, TM given before bleomycin or started at day 4 or 7 after, 1.2 then 0.9 mg/mouse/day",significant suppression of hydroxyproline production
same,effect of TM alone on hydroxyproline levels,"[3]; Ex 1 Exp 3, no bleomycin",no effect of TM alone on hydroxyproline levels
same,"lung hydroxyproline levels, bleomycin-induced increase","[3]; Ex 2 Exp 2, TM from day 5, day 21",completely and significantly inhibited the increase
same,"effects on copper levels (plasma ceruloplasmin, liver and kidney copper)",[4]; approximately 6 mg of TM per kilogram of diet,substantial effects on copper levels
same,anemia,[4]; approximately 12 mg of TM per kilogram of diet,Mild anemia
same,skeletal lesions,[4]; approximately 12 mg of TM,one of six animals
same,anemia,[4]; approximately 18 mg of TM,severe
same,growth rate,[4]; approximately 18 mg of TM,markedly impaired
same,skeletal lesions,[4]; approximately 18 mg of TM,all animals had skeletal lesions
same,efficacy against copper toxicity / liver disease,[5],very effective
same,levels of TGFβ in brain homogenates,[6],significant reduction
same,inhibition of tumor growth,[7],dramatic effects on inhibition of tumor growth
same,collagen deposition (Masson-trichrome),"[8]; Ex 1 Exp 1, TM treated group vs bleomycin only",much less collagen deposition
same,lung histopathology (H&E): patches of fibrosis and inflammatory cells,"[8]; Ex 1 Exp 1, TM-treated bleomycin animals vs bleomycin alone",substantially smaller with lesser degrees of cellular infiltration
same,histopathological evaluation of fibrotic lesions,"[8]; Ex 1 Exp 2, increasing TM dose",diminution of fibrotic lesion size with increasing dose of TM
same,lysyl oxidase activity in the lungs,[9],not inhibited
same,Cp levels in TM treated mice relative to non-TM treated animals,[10],25-50%
